Experimental data reported in patent US10106558B2, “Azolobenzazine compounds, compositions comprising these compounds and their use for controlling invertebrate pests” (BASF SE, priority 2015, dated 2018).

Experiments:
[1] = system: Mediterranean fruitfly (Ceratitis capitata); test: Action on Mediterranean fruitfly, eggs on insect diet in microtiter plates; type: in vivo; settings: 120 h, egg and larval mortality visually assessed after 5 days, read-out: mortality in comparison with untreated controls
Procedure, shortened: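 Microtiter plates held insect diet plus 50-80 C. capitata eggs; compounds in 75% water/25% DMSO were sprayed onto the diet at several concentrations, two replicates. Plates were kept at about […] and […] relative humidity for 5 days, then egg and larval mortality was scored visually.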

[2] = system: Silverleaf Whitefly (Bemisia argentifolii) (Adults); test: Action on silverleaf whitefly adults, sprayed cotton plants; type: in vivo; settings: 72 h, 3 days after treatment, read-out: mortality in comparison with untreated controls
Procedure, shortened: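 Compounds diluted from cyclohexanone stocks into 50% acetone/water with 0.01% nonionic surfactant and electrostatically sprayed onto cotyledon-stage cotton. Dried plants were infested with 10–12 adults (3–5 days old), held ~25 °C, 20–40% RH for 3 days; mortality scored at day 3 vs untreated plants.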

SMILES: Cc1ccc(C(C)C)c(N2C(=O)CS/C2=N\N=C\c2ccc3c(ccc4c3ncn4-c3ccc(OC(F)(F)F)cc3)n2)c1 [Compound C-6, (2Z)-3-(2-isopropyl-5-methyl-phenyl)-2-[(E)-[3-[4-(trifluoromethoxy)phenyl]imidazo[4,5-f]quinolin-7-yl]methylenehydrazono]thiazolidin-4-one]
- mortality at 800 ppm [1]: ≥ 75%
- mortality at 500 ppm [2]: ≥ 75%
